Where two headings read alike, the source gives them in different places.
What was measured:
[1] = tested on: ERK phosphorylation in KYSE-520 cells; assay: Phospho-ERK cellular assay (Advanced phospho-ERK1/2 (Thr202/Tyr204) TR-FRET kit); assay type: cell-based; conditions: read-out: pERK IC50
In short: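 KYSE-520 cells were treated 2 h at 37° C with serially diluted compounds, then lysed. Phospho-ERK1/2 (Thr202/Tyr204) was detected by TR-FRET after overnight antibody incubation at room temperature. IC50 came from a four-parameter logistic fit; lower signal reflects greater SHP2 inhibition.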

[2] = biological target: T1, SHP-2 enzyme (Met1-Leu525) (Homo sapiens, UniProt Q06124); assay: SHP2 inhibition enzymatic assay (DiFMUP substrate, IRS1 peptide activation); assay type: biochemical; conditions: SHP2 wt; activated by 500 nM IRS1 peptide; 75 μM DiFMUP substrate
T1 construct: synthetized by Origene, Met1-Leu525, cat #TP750155; purchased Origene TP750155
T1 sequence (Q06124 1-525): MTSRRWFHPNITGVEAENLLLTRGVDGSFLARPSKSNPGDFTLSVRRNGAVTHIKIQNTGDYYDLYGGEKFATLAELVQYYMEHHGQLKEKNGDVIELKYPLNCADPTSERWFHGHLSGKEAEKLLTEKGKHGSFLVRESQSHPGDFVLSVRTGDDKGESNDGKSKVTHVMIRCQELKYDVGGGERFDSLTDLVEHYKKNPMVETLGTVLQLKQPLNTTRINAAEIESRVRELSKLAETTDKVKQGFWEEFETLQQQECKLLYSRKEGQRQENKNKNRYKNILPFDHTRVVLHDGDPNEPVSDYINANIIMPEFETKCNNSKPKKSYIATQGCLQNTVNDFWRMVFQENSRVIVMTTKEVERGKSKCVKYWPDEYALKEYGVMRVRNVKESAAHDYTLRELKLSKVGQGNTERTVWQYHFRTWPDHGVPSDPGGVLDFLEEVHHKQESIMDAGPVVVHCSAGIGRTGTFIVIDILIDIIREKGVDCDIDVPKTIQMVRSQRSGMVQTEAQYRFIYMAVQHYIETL
In short: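 SHP-2 (Met1-Leu525, 0.5 nM final) preincubated 30 min with compounds and IRS1 activating peptide in HEPES pH 7.2 buffer with NaCl, KCl, EDTA, tween-20, 5 mM DTT. DiFMUP then added for 30 min at room temperature and fluorescence read. IC50 from four-parameter logistic fit of % inhibition.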

[3] = Homo sapiens, KYSE-520, 2 h, KYSE-520 cells, 2 h at 37° C., TR-FRET

SMILES	IC50 [1, 3]	IC50 [2]	IC50 ([1]; KYSE-520 cells, 2 h at 37° C., TR-FRET)	IC50 ([1]; Homo sapiens, KYSE-520, 2 h)
N[C@@H]1c2ccccc2CC12CCN(c1nc3nc(Sc4ccnc(NC5CC5)c4Cl)cnc3[nH]1)CC2 [Example 160, (S)-1′-(5-((3-chloro-2-(cyclopropylamino)pyridin-4-yl)thio)-1H-imidazo[4,5-b]pyrazin-2-yl)-1,3-dihydrospiro[indene-2,4′-piperidin]-1-amine]	< 1000 nM	< 500 nM		
COC1CN(c2nccc(Sc3cnc4nc(N5CCC6(CC5)Cc5ccccc5[C@H]6N)[nH]c4n3)c2Cl)C1 [Example 181, (S)-1′-(5-((3-chloro-2-(3-methoxyazetidin-1-yl)pyridin-4-yl)thio)-1H-imidazo[4,5-b]pyrazin-2-yl)-1,3-dihydrospiro[indene-2,4′-piperidin]-1-amine]	> 5000 nM	< 500 nM		
CC1(N)CCN(c2nc3nc(Sc4ccccc4Br)cnc3[nH]2)CC1 [Example 37, 1-(5-((2-bromophenyl)thio)-1H-imidazo[4,5-b]pyrazin-2-yl)-4-methylpiperidin-4-amine]	1000 to 5000 nM	< 500 nM		
N[C@@H]1c2ccccc2CC12CCN(c1nc3ncc(Sc4ccnc(N5CCOCC5)c4Cl)nc3[nH]1)CC2 [Example 180, (S)-1′-(5-((3-chloro-2-morpholinopyridin-4-yl)thio)-1H-imidazo[4,5-b]pyrazin-2-yl)-1,3-dihydrospiro[indene-2,4′-piperidin]-1-amine]	< 1000 nM	< 500 nM		
N[C@@H]1c2ccccc2CC12CCN(c1nc3nc(Sc4cncnc4C(F)(F)F)cnc3[nH]1)CC2 [Example 156, (S)-1′-(5-((4-(trifluoromethyl)pyrimidin-5-yl)thio)-1H-imidazo[4,5-b]pyrazin-2-yl)-1,3-dihydrospiro[indene-2,4′-piperidin]-1-amine]	> 5000 nM	< 500 nM		
N[C@H]1c2ccncc2CC12CCN(c1nc3nc(Sc4ccnc(NC5CC5)c4Cl)cnc3[nH]1)CC2 [Example 197, (R)-1′-(5-((3-chloro-2-(cyclopropylamino)pyridin-4-yl)thio)-1H-imidazo[4,5-b]pyrazin-2-yl)-5,7-dihydrospiro[cyclopenta[c]pyridine-6,4′-piperidin]-5-amine]	1000 to 5000 nM	< 500 nM		
N[C@H]1c2ccccc2CC12CCN(c1nc3nc(Sc4cccnc4C(F)(F)F)cnc3[nH]1)CC2 [Example 149, (R)-1′-(5-((2-(trifluoromethyl)pyridin-3-yl)thio)-1H-imidazo[4,5-b]pyrazin-2-yl)-1,3-dihydrospiro[indene-2,4′-piperidin]-1-amine]		< 500 nM		1000 to 5000 nM
COc1nccc(Sc2cnc3[nH]c(N4CCC5(CC4)Cc4ccc(Br)cc4[C@H]5N)nc3n2)c1Cl [Example 228, (S)-6-bromo-1′-(5-((3-chloro-2-methoxypyridin-4-yl)thio)-1H-imidazo[4,5-b]pyrazin-2-yl)-1,3-dihydrospiro[indene-2,4′-piperidin]-1-amine]	> 5000 nM	< 500 nM		
Nc1cc(Sc2cnc3[nH]c(N4CCC5(CC4)Cc4ccccc4[C@H]5N)nc3n2)c(Cl)c(Cl)n1 [Example 266, (S)-1′-(5-((6-amino-2,3-dichloropyridin-4-yl)thio)-1H-imidazo[4,5-b]pyrazin-2-yl)-1,3-dihydrospiro[indene-2,4′-piperidin]-1-amine]	> 5000 nM	< 500 nM		

More lines, main results first:

IC50 [1, 3]	IC50 [2]	IC50 ([1]; KYSE-520 cells, 2 h at 37° C., TR-FRET)	SMILES	IC50 ([1]; Homo sapiens, KYSE-520, 2 h)
> 5000 nM	500 to 3000 nM		CC(C)(C)S(=O)(=O)N[C@@H]1c2cccnc2CC12CCN(c1nc3nc(Sc4cccnc4C(F)(F)F)cnc3[nH]1)CC2 [Example 142, (S)-2-methyl-N-(1′-(5-((2-(trifluoromethyl)pyridin-3-yl)thio)-1H-imidazo[4,5-b]pyrazin-2-yl)-5,7-dihydrospiro[cyclopenta[b]pyridine-6,4′-piperidin]-5-yl)propane-2-sulfonamide]	
< 1000 nM	< 500 nM		Nc1nccc(Sc2cnc3nc(N4CCC5(CC4)Cc4cccc(F)c4[C@H]5N)[nH]c3n2)c1Cl [Example 203, (S)-1′-(6-((2-amino-3-chloropyridin-4-yl)thio)-1H-imidazo[4,5-b]pyrazin-2-yl)-7-fluoro-1,3-dihydrospiro[indene-2,4′-piperidin]-1-amine]	
1000 to 5000 nM	< 500 nM	< 1000 nM	CNc1nccc(Sc2cnc3[nH]c(N4CCC5(CC4)Cc4ccccc4[C@H]5N[S@+]([O-])C(C)(C)C)nc3n2)c1Cl [Example 209, (R)-N-((S)-1′-(5-((3-chloro-2-(methylamino)pyridin-4-yl)thio)-1H-imidazo[4,5-b]pyrazin-2-yl)-1,3-dihydrospiro[indene-2,4′-piperidin]-1-yl)-2-methylpropane-2-sulfinamide]	
1000 to 5000 nM	500 to 3000 nM		COc1cc(Sc2cnc3[nH]c(N4CCC5(CC4)Cc4ccccc4[C@H]5N)nc3n2)c(Cl)cn1 [Example 242, (S)-1′-(5-((5-chloro-2-methoxypyridin-4-yl)thio)-1H-imidazo[4,5-b]pyrazin-2-yl)-1,3-dihydrospiro[indene-2,4′-piperidin]-1-amine]	
< 1000 nM	< 500 nM		COc1c(Sc2cnc3nc(N4CCC5(CC4)Cc4ccc(F)cc4[C@H]5N)[nH]c3n2)ccnc1N [Example 190, (S)-1′-(6-((2-amino-3-methoxypyridin-4-yl)thio)-1H-imidazo[4,5-b]pyrazin-2-yl)-6-fluoro-1,3-dihydrospiro[indene-2,4′-piperidin]-1-amine]	
> 5000 nM	< 500 nM		N[C@@H]1c2ccccc2CC12CCN(c1nc3nc(Sc4ccc[nH]c4=O)cnc3[nH]1)CC2 [Example 238, (S)-3-((2-(1-amino-1,3-dihydrospiro[indene-2,4′-piperidin]-1′-yl)-1H-imidazo[4,5-b]pyrazin-5-yl)thio)pyridin-2(1H)-one]	
1000 to 5000 nM	500 to 3000 nM		N[C@@H]1c2ccccc2CC12CCN(c1nc3nc(Sc4cc(O)ncc4Cl)cnc3[nH]1)CC2 [Example 241, (S)-4-((2-(1-amino-1,3-dihydrospiro[indene-2,4′-piperidin]-1′-yl)-1H-imidazo[4,5-b]pyrazin-5-yl)thio)-5-chloropyridin-2-ol]	
< 1000 nM	< 500 nM		N[C@@H]1c2ccccc2CC12CCN(c1nc3ncc(Sc4cccc5c4OCCO5)nc3[nH]1)CC2 [Example 167, (S)-1′-(6-((2,3-dihydrobenzo[b][1,4]dioxin-5-yl)thio)-1H-imidazo[4,5-b]pyrazin-2-yl)-1,3-dihydrospiro[indene-2,4′-piperidin]-1-amine]	
> 5000 nM	< 500 nM		CCNc1nccc(Sc2cnc3[nH]c(N4CCC5(CC4)Cc4ccccc4[C@H]5N)nc3n2)c1Cl [Example 246, (S)-1′-(5-((3-chloro-2-(ethylamino)pyridin-4-yl)thio)-1H-imidazo[4,5-b]pyrazin-2-yl)-1,3-dihydrospiro[indene-2,4′-piperidin]-1-amine]	
1000 to 5000 nM	< 500 nM		N[C@@H]1c2cc(F)ccc2CC12CCN(c1nc3nc(Sc4cccn5ccnc45)cnc3[nH]1)CC2 [Example 192, (S)-6-fluoro-1′-(5-(imidazo[1,2-a]pyridin-8-ylthio)-1H-imidazo[4,5-b]pyrazin-2-yl)-1,3-dihydrospiro[indene-2,4′-piperidin]-1-amine]	
< 1000 nM	< 500 nM		COc1nc(N)ccc1Sc1cnc2[nH]c(N3CCC4(CC3)Cc3ccccc3[C@H]4N)nc2n1 [Example 269, (S)-1′-(5-((6-amino-2-methoxypyridin-3-yl)thio)-1H-imidazo[4,5-b]pyrazin-2-yl)-1,3-dihydrospiro[indene-2,4′-piperidin]-1-amine]	
> 5000 nM	< 500 nM		N#Cc1ccc2c(c1)[C@@H](N)C1(CCN(c3nc4nc(Sc5ccnc(N)c5Cl)cnc4[nH]3)CC1)C2 [Example 256, (S)-1-amino-1′-(5-((2-amino-3-chloropyridin-4-yl)thio)-1H-imidazo[4,5-b]pyrazin-2-yl)-1,3-dihydrospiro[indene-2,4′-piperidine]-6-carbonitrile]	
< 1000 nM	< 500 nM		C[C@@H]1OCC2(CCN(c3cc4nc(Sc5ccnc(N)c5Cl)cnc4[nH]3)CC2)[C@@H]1N [Example 268, (3S,4S)-8-(2-((2-amino-3-chloropyridin-4-yl)thio)-5H-pyrrolo[2,3-b]pyrazin-6-yl)-3-methyl-2-oxa-8-azaspiro[4.5]decan-4-amine]	
1000 to 5000 nM	< 500 nM		N[C@@H]1c2cccnc2CC12CCN(c1nc3ncc(Sc4ccnc(NC5CC5)c4Cl)nc3[nH]1)CC2 [Example 161, (S)-1′-(6-((3-chloro-2-(cyclopropylamino)pyridin-4-yl)thio)-1H-imidazo[4,5-b]pyrazin-2-yl)-5,7-dihydrospiro[cyclopenta[b]pyridine-6,4′-piperidin]-5-amine]	

From patent US20220289753A1, “SHP2 INHIBITORS” (IRBM S.P.A., priority 2019, published 2022)
